PubChem BioAssay AID493130 (Broad Institute, 2011)
Records with an inconclusive call do not appear. Calls of active or inactive are those of the source.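 How the source made its calls: active means signal-lowering compounds whose fitted half-maximal concentration is at most ten times their highest tested dose; inconclusive means flat fit between -30 and -70%, or poor fit; inactive means flat within 30%, signal rising, or potency beyond limit.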

What follows are compounds tested against POS-1 (Caenorhabditis elegans) binding to mex-3 RNA (assay: inhibitors of POS-1/mex-3 RNA binding, dose response, counter-screen for MEX-5 RNA-binding inhibitor project, biochemical, fluorescence polarization, cherry-picked samples, set 2 (AID 493130;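 further: POS-1 as maltose binding protein fusion made in E. coli with FITC RNA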)). Conditions: POS-1/mex-3 RNA fluorescence polarization, 1 h.

SMILES | AC50
O=[N+]([O-])c1cc(/C=N\Nc2nccs2)ccc1O | 2.55 µM
Nc1nnc(CC(=O)N/N=C/c2cc([N+](=O)[O-])cc(Br)c2O)s1 | 6.03 µM
Cc1cc(-c2csc(N)n2)c(C)n1C | 8.77 µM
O=C1N=c2ccccc2=C1c1sc(=S)n(NC(=O)c2ccccc2)c1O | 8.56 µM
CCCCOc1ccc2c(c1)/C(=C(\C(Cl)=C(Cl)Cl)[N+](=O)[O-])N2 | 8.54 µM
CCN(CC)c1ccc(/C=C(/C#N)c2nc3ccc(C)cc3[nH]2)c(OC(C)C)c1 | 1.61 µM

Same assay, conditions: POS-1/mex-3 RNA fluorescence polarization, 1 h; at 10 µM (top of the series)

SMILES | activity change, negative = inhibition
Cc1ccc(S(=O)(=O)c2cc3c(=O)n4cccc(C)c4nc3n(C3CCCCC3)c2=N)cc1 | inactive
O=c1[nH]c(=O)n(Cc2ccccc2)c(O)c1/C=C1\C=Nc2ccccc21 | inactive
Cc1cc(=O)n2[nH]c(N)c(N=Nc3ccccc3F)c2n1 | inactive
COc1ccc(C(=O)C/C(=C\C(=O)c2ccc(C)cc2)c2ccccc2)cc1 | inactive
O=C(N/N=C/c1cccnc1)c1ccc(O)cc1 | inactive
CCCCN1C=CC(=C2C(=O)c3ccccc3C2=O)C=C1 | inactive
O=c1c2ccccc2nc(/C=C/c2ccc([N+](=O)[O-])o2)n1-c1ccc(O)cc1 | inactive
CCOc1ccc(/C=C2\SC(=S)N(Nc3ccccc3)C2=O)cc1OC | inactive
COc1ccc(C(=O)NNC(=O)C(=O)/C=C(\O)c2ccc(C)cc2)cc1 | inactive
COc1ccccc1N=Nc1c(C)[nH][nH]c1=O | inactive
Cc1ccc(NC(=O)CCC(=O)NNC(=S)Nc2ccc(F)cc2)c(C)c1 | inactive
CS(=O)(=O)/C(C#N)=C/c1c(-c2ccccc2)nc2n1CCS2 | inactive
O=C(O)c1cc(Oc2ccc(C(F)(F)F)cc2Cl)ccc1[N+](=O)[O-] | inactive
CC1CN(c2nc3ccccc3nc2C(C#N)C(=O)NCc2ccc3c(c2)OCO3)CC(C)O1 (stereo unspecified) | inactive
NC(=O)c1cccc2cc3ccccc3cc12 | inactive
Cc1nnc(-c2cccc(Br)c2)c2cn(-c3cccc(Br)c3)nc12 | inactive
Cc1ccc([C@@H]2C3COCC=C3C(C#N)=C(N)C2(C#N)C#N)o1 (stereo partly specified) | inactive
CCCCn1c(N)c(N(CCOC)C(=O)c2ccc(Br)o2)c(=O)[nH]c1=O | inactive
COc1cc2c(cc1OC)-c1c(OC)c(OC)cc3c1C(C2)N(C)CC3 (stereo unspecified) | inactive
O=C(Nc1cccnc1)c1cccs1 | inactive
CSCC(C)N1CCC(n2nccc2NC(=O)CCc2ccccc2)CC1 (stereo unspecified) | inactive
CNC(=O)c1c(NC(=O)c2nc3ccccc3s2)sc2c1CCC2 | inactive
CN1/C(=C\C=C(/C#N)C(=O)Nc2ccccc2F)C(C)(C)c2ccccc21 | inactive
O=C(O)c1c2c(nc3ccccc13)/C(=C/c1ccc(O)cc1)CC2 | inactive
CCc1cccc2cc3c(N)c(C(=O)Nc4ccc(S(=O)(=O)N5CCCC5)cc4)sc3nc12 | inactive
CSc1ccc(C(c2c(C(=O)O)[nH]c3ccccc23)c2c(C(=O)O)[nH]c3ccccc23)cc1 | inactive
CCCc1cc(C(=O)Cc2ccc(C(=O)OCC)o2)c(O)cc1O | inactive
O=C1S/C(=C\c2cccs2)C(=O)N1c1ccc(O)cc1 | inactive

SMILES | activity change, negative = inhibition
CCN(CC)c1ccc(/C=N/NC(=O)c2cccc(S(=O)(=O)Nc3ccccc3OC)c2)c(O)c1 | inactive
O=C(NNC(=O)c1ccccc1Cl)c1csc(N2CCOCC2)n1 | inactive
CN(C)c1ccc(/C=N/NC(=O)c2cnc3ccccc3c2)cc1 | inactive
CC1=C(C(=O)OCc2ccccc2)C(c2cccc([N+](=O)[O-])c2)NC(=O)N1C (stereo unspecified) | inactive
O=C(O)c1ccc(/C=C2\SC(=S)N(Nc3ccccc3)C2=O)cc1 | inactive
O=C(N/N=C/c1cc2c(cc1Cl)OCO2)c1ccccn1 | inactive
Cc1cc([N+](=O)[O-])nn1CC(=O)NNC(=S)Nc1ccc(F)cc1 | inactive
CCOC(=O)c1ccc(N=Nc2c(C)c(C#N)c(O)[nH]c2=O)cc1 | inactive
CCOC(=O)c1cnc2c(N=Nc3ccccc3)c(N)nn2c1N | inactive
Cc1cccc(C(=O)NNC(=O)c2ccco2)c1O | inactive
O=C(O)CCSc1nc2ccccc2n1Cc1ccccc1 | inactive
CC1(C)CC(=O)C2=C(C1)Nc1cc(Cl)ccc1S2 | inactive
COCC(C)N1CCC(Oc2cccc(C(=O)NCCc3ccccc3)c2)CC1 (stereo unspecified) | inactive
CCN1C(=O)c2cccc3c(NC(=O)C4CCCCC4)ccc1c23 | inactive
Nc1nc(Cl)nc2ccc(Br)cc12 | inactive
COC(=O)CCC(=O)NC(=S)Nc1sc(C)c(C)c1C(N)=O | inactive
COc1ccccc1N1C(=O)S/C(=C\c2cccs2)C1=O | inactive
CC(=O)NN1C(=O)/C(=C/c2ccc(Br)o2)SC1=S | inactive
Oc1c(Cl)cc(Cl)c2c1NCCC2 | inactive
Oc1[nH]c(N=C2N=c3ccccc3=N2)c2ccccc12 | inactive
COCc1cc(C)nc(N/N=C/c2ccc(-c3cc(C(=O)O)ccc3Cl)o2)c1C#N | inactive
CC(=O)Nc1ccc(N=NC2C(=O)N(C(N)=S)N=C2C)cc1 (stereo unspecified) | inactive
O=C1NC(=O)/C(=C/c2ccc(N3CCOCC3)o2)N1 | inactive
CCOc1ccccc1N=NC1C(=O)N(C(N)=S)N=C1C (stereo unspecified) | inactive
O=C(NC(=S)NNS(=O)(=O)c1ccccc1)c1ccc([N+](=O)[O-])cc1 | inactive
COc1ccc(/C=N/Nc2nc(=O)[nH]nc2C)cc1[N+](=O)[O-] | inactive
O=C(/C=C(\O)c1ccccc1)C(=O)NNC(=O)c1ccccc1 | inactive
